Activity calls are given as the source filed them. Rule as the data show it, for most assays here: actives have a measured EC50 and inactives only a lower limit.

By IC50 is commonly meant the point on the concentration scale where inhibition reaches its midpoint. A word on the EC50: it is the concentration that produces a half-maximal response. By AC50 is commonly meant the concentration giving half of the maximal activity seen.

The target of assay [1] is T1, Alkaline phosphatase, tissue-nonspecific isozyme (Homo sapiens, UniProt P05186).
T1 sequence (P05186 whole entry): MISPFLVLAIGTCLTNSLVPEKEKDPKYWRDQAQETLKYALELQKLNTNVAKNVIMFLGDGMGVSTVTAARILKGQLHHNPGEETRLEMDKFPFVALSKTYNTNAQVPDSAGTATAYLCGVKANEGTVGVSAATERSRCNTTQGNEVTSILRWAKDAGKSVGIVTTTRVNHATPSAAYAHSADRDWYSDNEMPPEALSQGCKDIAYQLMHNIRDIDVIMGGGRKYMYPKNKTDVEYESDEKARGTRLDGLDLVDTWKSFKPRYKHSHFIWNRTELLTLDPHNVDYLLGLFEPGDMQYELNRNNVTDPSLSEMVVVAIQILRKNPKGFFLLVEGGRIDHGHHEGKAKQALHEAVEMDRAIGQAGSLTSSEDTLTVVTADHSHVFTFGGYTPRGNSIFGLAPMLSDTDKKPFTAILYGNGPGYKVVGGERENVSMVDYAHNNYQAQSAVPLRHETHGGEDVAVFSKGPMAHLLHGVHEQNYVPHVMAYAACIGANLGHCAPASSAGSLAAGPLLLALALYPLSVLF
The assay can be described thus: human TNAP enzyme inhibitors, SAR follow-up, biochemical, luminescent, dose response (AID 1056).

The next assay has as its target SUMO-activating enzyme (Homo sapiens, UniProt Q9UBT2). The assay can be described thus: inhibitors of in vitro SUMOylation cascade, primary screen, biochemical, HTRF, uHTS (AID 2006). The class given is protein-complex assay. (Time-resolved FRET reads energy transfer from a long-lived donor to a nearby acceptor.)
For assay [2], the target named is Voltage-gated N-type calcium channel alpha-1B subunit/Amyloid beta A4 precursor protein-binding family A member 1 (Homo sapiens, UniProt Q00975+Q02410). It counts as protein assay.
Sequence of Voltage-gated N-type calcium channel alpha-1B subunit/Amyloid beta A4 precursor protein-binding family A member 1 (Q00975 whole entry): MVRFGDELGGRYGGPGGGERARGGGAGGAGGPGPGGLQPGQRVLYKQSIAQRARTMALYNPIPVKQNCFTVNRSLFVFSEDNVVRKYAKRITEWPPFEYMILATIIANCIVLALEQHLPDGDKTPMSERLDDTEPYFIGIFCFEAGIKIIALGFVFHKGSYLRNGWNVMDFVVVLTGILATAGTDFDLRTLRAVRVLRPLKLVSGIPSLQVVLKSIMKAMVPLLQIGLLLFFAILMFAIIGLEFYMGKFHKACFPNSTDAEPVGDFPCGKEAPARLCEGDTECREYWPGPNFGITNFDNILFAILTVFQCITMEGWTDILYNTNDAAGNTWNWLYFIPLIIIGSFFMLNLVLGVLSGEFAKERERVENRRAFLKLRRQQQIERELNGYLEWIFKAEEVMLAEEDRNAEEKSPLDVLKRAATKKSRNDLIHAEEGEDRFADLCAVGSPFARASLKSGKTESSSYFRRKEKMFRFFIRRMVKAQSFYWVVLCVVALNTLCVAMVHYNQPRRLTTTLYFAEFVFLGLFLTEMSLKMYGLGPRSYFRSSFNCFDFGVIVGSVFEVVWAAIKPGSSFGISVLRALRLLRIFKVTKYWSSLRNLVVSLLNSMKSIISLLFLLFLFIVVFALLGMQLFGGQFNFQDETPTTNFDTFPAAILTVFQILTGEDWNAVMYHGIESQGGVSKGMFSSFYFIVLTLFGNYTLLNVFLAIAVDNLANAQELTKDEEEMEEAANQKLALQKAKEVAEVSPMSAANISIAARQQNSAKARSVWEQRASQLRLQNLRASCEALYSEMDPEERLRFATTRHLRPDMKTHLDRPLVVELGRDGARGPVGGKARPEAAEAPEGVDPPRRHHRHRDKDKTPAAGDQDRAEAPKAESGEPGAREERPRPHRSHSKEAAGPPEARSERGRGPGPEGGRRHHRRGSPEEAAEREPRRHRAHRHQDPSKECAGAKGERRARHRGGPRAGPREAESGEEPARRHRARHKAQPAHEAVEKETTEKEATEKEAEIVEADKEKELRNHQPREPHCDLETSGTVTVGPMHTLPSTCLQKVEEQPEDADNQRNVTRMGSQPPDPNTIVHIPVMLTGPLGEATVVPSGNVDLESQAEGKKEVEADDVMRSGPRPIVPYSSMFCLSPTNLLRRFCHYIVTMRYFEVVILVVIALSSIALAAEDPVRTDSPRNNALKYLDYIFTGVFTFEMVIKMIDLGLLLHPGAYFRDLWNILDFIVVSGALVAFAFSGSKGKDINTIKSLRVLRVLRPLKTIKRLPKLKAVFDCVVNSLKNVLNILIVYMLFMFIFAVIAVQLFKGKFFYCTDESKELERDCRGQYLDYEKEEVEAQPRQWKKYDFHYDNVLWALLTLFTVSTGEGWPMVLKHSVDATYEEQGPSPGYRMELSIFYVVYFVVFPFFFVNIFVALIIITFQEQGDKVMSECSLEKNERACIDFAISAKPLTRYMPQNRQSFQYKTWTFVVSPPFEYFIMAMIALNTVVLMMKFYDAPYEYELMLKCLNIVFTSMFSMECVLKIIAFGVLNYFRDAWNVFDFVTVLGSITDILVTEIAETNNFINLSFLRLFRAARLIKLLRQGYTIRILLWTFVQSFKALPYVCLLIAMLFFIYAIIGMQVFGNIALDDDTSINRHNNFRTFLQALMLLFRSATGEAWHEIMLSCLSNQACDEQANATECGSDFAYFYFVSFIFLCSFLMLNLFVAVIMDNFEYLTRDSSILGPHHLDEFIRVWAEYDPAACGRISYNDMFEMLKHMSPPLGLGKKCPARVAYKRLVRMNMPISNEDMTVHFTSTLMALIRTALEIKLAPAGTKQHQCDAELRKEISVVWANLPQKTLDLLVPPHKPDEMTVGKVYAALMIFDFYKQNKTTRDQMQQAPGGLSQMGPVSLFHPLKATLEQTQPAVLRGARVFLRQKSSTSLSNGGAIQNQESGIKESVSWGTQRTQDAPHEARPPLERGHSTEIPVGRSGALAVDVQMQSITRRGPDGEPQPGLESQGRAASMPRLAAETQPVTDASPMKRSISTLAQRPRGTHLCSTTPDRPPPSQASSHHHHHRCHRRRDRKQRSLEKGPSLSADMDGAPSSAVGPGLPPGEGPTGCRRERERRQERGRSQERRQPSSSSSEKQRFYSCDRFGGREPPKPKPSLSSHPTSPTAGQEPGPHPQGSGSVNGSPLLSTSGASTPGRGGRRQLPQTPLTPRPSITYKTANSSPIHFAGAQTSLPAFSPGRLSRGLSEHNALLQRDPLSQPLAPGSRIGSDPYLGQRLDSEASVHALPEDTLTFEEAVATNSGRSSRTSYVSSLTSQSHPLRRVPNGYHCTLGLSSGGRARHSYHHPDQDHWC
Sequence of Voltage-gated N-type calcium channel alpha-1B subunit/Amyloid beta A4 precursor protein-binding family A member 1 (Q02410 whole entry): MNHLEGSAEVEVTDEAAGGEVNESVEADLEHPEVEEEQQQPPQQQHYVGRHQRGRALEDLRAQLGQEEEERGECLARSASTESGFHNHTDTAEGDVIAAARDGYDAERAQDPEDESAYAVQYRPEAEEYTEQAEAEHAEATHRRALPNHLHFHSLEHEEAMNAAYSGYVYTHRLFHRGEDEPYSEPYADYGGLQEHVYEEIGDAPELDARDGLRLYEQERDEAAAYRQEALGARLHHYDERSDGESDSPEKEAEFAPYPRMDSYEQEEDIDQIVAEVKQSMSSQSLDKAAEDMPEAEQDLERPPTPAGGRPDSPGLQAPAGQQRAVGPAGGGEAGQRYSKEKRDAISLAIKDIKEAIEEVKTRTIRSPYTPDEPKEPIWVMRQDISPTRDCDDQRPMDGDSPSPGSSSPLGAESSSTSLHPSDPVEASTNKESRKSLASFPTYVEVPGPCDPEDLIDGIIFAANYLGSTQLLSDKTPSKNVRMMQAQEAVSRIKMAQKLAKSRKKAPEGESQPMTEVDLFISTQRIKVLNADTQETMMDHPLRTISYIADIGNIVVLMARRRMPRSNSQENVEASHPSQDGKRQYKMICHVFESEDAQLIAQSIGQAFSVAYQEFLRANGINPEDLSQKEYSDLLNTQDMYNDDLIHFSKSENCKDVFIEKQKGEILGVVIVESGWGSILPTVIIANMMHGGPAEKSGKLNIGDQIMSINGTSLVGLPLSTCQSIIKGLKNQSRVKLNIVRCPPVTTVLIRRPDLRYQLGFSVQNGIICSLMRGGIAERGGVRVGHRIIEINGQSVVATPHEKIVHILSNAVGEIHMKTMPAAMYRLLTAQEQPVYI
Assay [3] deals with T2, RNA-binding protein pos-1 (Caenorhabditis elegans, UniProt G5EF15).
T2 sequence (G5EF15 whole entry): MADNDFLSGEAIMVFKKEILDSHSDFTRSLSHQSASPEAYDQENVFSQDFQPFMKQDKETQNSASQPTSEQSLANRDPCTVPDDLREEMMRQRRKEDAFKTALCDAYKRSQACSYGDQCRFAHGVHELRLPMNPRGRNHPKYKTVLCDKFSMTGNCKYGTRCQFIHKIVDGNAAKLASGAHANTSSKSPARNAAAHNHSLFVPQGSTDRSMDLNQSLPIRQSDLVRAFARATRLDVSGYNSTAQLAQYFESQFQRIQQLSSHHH
Briefly: inhibitors of POS-1/mex-3 RNA binding, dose response, biochemical, fluorescence polarization (AID 1964).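 Also: purified POS-1 fused to maltose binding protein made in E. coli; potency of compounds blocking POS-1 binding to fluorescent RNA.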 On the technique in general: Fluorescence polarisation rises when a labelled molecule tumbles more slowly, as on binding a larger partner.

Assay [4] concerns the target T3, Zinc finger protein mex-5 (Caenorhabditis elegans, UniProt Q9XUB2).
T3 sequence (Q9XUB2 whole entry): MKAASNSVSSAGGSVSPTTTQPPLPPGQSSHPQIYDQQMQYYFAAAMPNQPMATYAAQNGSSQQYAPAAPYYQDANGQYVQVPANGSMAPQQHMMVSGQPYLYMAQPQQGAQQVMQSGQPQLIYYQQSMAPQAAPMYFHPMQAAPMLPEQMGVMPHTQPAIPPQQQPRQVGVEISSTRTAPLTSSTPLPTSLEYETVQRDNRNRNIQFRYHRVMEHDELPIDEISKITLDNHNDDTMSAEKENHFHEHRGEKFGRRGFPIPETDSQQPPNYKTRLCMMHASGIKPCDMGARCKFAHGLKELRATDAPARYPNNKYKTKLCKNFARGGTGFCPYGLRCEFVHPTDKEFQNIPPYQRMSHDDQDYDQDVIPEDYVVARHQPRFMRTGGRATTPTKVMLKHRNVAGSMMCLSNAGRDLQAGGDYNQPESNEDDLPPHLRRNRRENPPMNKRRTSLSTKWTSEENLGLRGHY
Briefly: MEX-5/TCR-2 RNA interaction inhibitors, dose response, biochemical, C. elegans, fluorescence polarization (AID 1960).

For assay [5], the target named is T4, Sentrin-specific protease 8 (Homo sapiens, UniProt Q96LD8).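 Also: kinetic enzyme assay of SENP8 cleaving a Nedd8 protein substrate, dose-response confirmation of screening hits.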
T4 sequence (Q96LD8 whole entry): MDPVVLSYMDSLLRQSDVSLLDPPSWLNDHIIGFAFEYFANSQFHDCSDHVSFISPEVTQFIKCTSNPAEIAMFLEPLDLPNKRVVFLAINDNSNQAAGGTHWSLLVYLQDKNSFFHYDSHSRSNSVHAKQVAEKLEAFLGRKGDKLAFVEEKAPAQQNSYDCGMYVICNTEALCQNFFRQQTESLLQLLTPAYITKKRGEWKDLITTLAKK
The class given is functional.

Another assay has as its system INS1. Briefly: beta cell apoptosis inhibitors, cytokine rescue, dose response, luminescence, retest (AID 449756).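 Also: cell death triggered by IL-1 beta plus TNF-alpha plus IFN-gamma mixture; protective hits raise ATP signal compared with cytokine alone wells.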 It counts as functional, cell-based. Conditions: Rattus norvegicus.
Assay [6] is described as follows: Luminescence Cell-Based Dose Response HTS to Identify Inhibitors of 5'UTR Stem-Loop Driven Prion Protein mRNA Translation in H4 Neuroglioblastoma Cells. [Related pubchem assays: 1827 (Project Summary), 1813 (Primary HTS)]. The class given is functional.
Assay [7] in a line: inhibitors of firefly luciferase expression or activity, dose response, H4 neuroglioma cells, luminescence (AID 1990). It counts as functional, cell-based.
Assay [8] is described as follows: cells. The class given is functional, cell-based.
Assay [9] is described as follows: cells. The class given is functional, cell-based. The source holds these as a separate data set.

Sequence of SUMO-activating enzyme (Q9UBE0 whole entry): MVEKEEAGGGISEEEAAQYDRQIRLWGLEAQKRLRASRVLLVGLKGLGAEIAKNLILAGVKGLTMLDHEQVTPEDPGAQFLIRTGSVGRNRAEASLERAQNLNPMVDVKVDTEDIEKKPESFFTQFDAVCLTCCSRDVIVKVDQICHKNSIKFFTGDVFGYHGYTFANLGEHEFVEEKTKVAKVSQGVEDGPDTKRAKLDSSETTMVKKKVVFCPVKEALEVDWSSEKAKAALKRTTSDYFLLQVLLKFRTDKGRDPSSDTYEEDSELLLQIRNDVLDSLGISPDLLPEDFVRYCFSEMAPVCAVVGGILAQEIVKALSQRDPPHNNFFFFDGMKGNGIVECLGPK
Sequence of SUMO-activating enzyme (Q9UBT2 whole entry): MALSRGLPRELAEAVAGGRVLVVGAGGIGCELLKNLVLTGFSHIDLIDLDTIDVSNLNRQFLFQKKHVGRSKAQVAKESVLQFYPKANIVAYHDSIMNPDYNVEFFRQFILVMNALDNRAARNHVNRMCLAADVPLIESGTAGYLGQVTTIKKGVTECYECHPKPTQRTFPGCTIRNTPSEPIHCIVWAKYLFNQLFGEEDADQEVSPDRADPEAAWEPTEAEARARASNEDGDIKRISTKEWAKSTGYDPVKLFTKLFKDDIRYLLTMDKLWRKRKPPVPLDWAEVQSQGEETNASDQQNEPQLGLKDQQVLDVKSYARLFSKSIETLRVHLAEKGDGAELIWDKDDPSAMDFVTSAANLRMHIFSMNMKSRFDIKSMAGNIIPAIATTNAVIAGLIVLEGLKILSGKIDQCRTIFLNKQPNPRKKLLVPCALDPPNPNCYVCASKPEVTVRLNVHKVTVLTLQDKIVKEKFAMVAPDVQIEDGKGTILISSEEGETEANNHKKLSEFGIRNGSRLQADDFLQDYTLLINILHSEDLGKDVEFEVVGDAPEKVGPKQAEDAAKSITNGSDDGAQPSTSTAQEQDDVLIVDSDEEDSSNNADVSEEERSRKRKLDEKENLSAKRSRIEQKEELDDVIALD

Consider `Oc1cc(-c2cccc3ccccc23)[nH]n1`, for which the IC50 in assay [1] is 3.87 µM (active).

For the compound `c1coc(-c2nnc(-c3ccco3)nn2)c1`, the IC50 on SUMO-activating enzyme is 6.47 µM (active); in [2], 17.7 µM (active); in [5], 5.41 µM (active). For the same compound, the EC50 was 7.92 µM (inconclusive) in assay [3] and 7.69 µM (active) in assay [4].

Take `O=C(Nc1cccc(NC(=O)c2ccccc2Cl)c1)c1ccc([N+](=O)[O-])o1`: the AC50 in the assay with INS1 was 7.35 µM (active). Further, the values for the EC50 in assay [6] and in assay [7] were 9.73 µM (active) and 8.33 µM (active), respectively.

On to `Cn1c(O)c(/C=N/NC(=O)c2cc3ccccc3cc2O)c2ccccc21`, for which the EC50 in “cells [8]” is 4.07 µM (active); in the assay “cells [9]” it was 128 µM (active).

These data come from ChEMBL document CHEMBL1201862, “PubChem BioAssay data set” (2004).
